{"source": "patent US4929601A", "about": "“Tripeptides useful as immunostimulants as well as in the prevention of metastases” (Ellem Industria Farmaceutica, S.p.A., priority 1987, dated 1990)", "key": {"[1]": {"system": "B16-BL6 murine melanoma cells", "assay": "Antimetastatic activity: pulmonary colonization by melanoma cells inoculated in mice", "format": "in vivo, female C57BL/6 mice", "excerpt": "The capacity of the tripeptide […] of inhibiting the pulmonary colonization by B16-BL6 murine melanoma cells inoculated in female C57BL/6 mice having an average body weight of 20 g (10 animals per group) has been evaluated. […] Fourteen days later, the animals have been sacrificed, the lungs have been withdrawn and examined after formalin fixation for the presence of surface melanoma colonies. A group of control animals has only been treated with the tumour cell suspension."}, "[2]": {"system": "PHA-stimulated human T lymphocytes", "assay": "DNA synthesis in PHA-stimulated human T lymphocytes in vitro (3H-thymidine)", "format": "cell-based", "conditions": "for DNA synthesis, 3H-thymidine c.p.m. (mean): control 22642", "protocol": "Human T lymphocytes, incubated in vitro for 72 hours in presence of 0.5% PHA and different concentrations of the tripeptides under examination, have been analyzed for DNA synthesis (cell proliferation) by means of 3H-thymidine labelling."}, "Human T lymphocytes": {"system": "Human T lymphocytes", "assay": "Stimulation of lymphokine production in vitro: BCGF activity of supernatants", "format": "cell-based", "protocol": "Human T lymphocytes have been incubated with PHA and with or without the peptides under examination for 24 hours (in the case of IL-2) or 72 hours (in the case of BCGF).\nThe supernatants have been collected, filtered (0.2 μm) and assayed for the presence of IL-2 or BCGF activity, by adding them at different concentrations to fresh T lymphocytes or to long term cultured B cells. The proliferating activity of these cells, dependent on the presence of the respective growth factor, has been evaluated through 3H-thymidine incorporation."}, "[3]": {"assay": "Toxicological trials: LD50 in mice", "conditions": "mouse, in vivo, ip; i.p. in mice"}}, "data": [{"smiles": "N=C(N)NCCC[C@H](N)C(=O)NCC(=O)N[C@@H](CC(=O)O)C(=O)O", "note": "[ARG--GLY--ASP, L-Arginyl-glycyl-L-aspartic acid]", "values": [{"measurement": "mean number of metastases", "setting": "[1]; 3 mg/mouse i.v. together with 2×10^5 melanoma cells, lungs after 14 days, controls above 500/mouse", "value": "173 /mouse"}, {"measurement": "change of mean number of metastases vs controls", "setting": "[1]; 3 mg/mouse i.v., 7×10^4 tumour cells", "value": -69, "unit": "%"}, {"measurement": "mean number of metastases", "setting": "[1]; 3 mg/mouse i.v., 7×10^4 tumour cells, controls 21.6", "value": 6.8}, {"measurement": "PHA-induced human T lymphocyte proliferation (DNA synthesis)", "setting": "[2]; 72 hours, 0.5% PHA", "value": "able to increase"}, {"measurement": "DNA synthesis Δ %", "setting": "[2]; peptide 0.0001 mcg/ml", "value": -3, "unit": "%"}, {"measurement": "DNA synthesis, 3H-thymidine c.p.m. (mean)", "setting": "[2]; peptide 0.0001 mcg/ml, 72 hours, 0.5% PHA", "value": 22002, "unit": "c.p.m."}, {"measurement": "DNA synthesis Δ %", "setting": "[2]; peptide 0.001 mcg/ml", "value": "+4%"}, {"measurement": "DNA synthesis, 3H-thymidine c.p.m. (mean)", "setting": "[2]; peptide 0.001 mcg/ml, 72 hours, 0.5% PHA", "value": 23519, "unit": "c.p.m."}, {"measurement": "DNA synthesis Δ %", "setting": "[2]; peptide 0.01 mcg/ml", "value": "+6%"}, {"measurement": "DNA synthesis, 3H-thymidine c.p.m. (mean)", "setting": "[2]; peptide 0.01 mcg/ml, 72 hours, 0.5% PHA", "value": 24034, "unit": "c.p.m."}, {"measurement": "DNA synthesis Δ %", "setting": "[2]; peptide 0.1 mcg/ml", "value": "+17%"}, {"measurement": "DNA synthesis, 3H-thymidine c.p.m. (mean)", "setting": "[2]; peptide 0.1 mcg/ml, 72 hours, 0.5% PHA", "value": 25814, "unit": "c.p.m."}, {"measurement": "DNA synthesis Δ %", "setting": "[2]; peptide 1 mcg/ml", "value": "+11%"}, {"measurement": "DNA synthesis, 3H-thymidine c.p.m. (mean)", "setting": "[2]; peptide 1 mcg/ml, 72 hours, 0.5% PHA", "value": 25163, "unit": "c.p.m."}, {"measurement": "DNA synthesis Δ %", "setting": "[2]; peptide 10 mcg/ml", "value": "+6%"}, {"measurement": "DNA synthesis, 3H-thymidine c.p.m. (mean)", "setting": "[2]; peptide 10 mcg/ml, 72 hours, 0.5% PHA", "value": 24111, "unit": "c.p.m."}, {"measurement": "BCGF activity Δ %", "setting": "Human T lymphocytes; 3.125% of supernatant", "value": "+257%"}, {"measurement": "BCGF ACTIVITY (mean)", "setting": "Human T lymphocytes; 3.125% of supernatant, T + PHA 1345", "value": 4800, "unit": "COUNTS PER MINUTE"}, {"measurement": "BCGF activity Δ %", "setting": "Human T lymphocytes; 6.25% of supernatant", "value": "+299%"}, {"measurement": "BCGF ACTIVITY (mean)", "setting": "Human T lymphocytes; 6.25% of supernatant, T + PHA 2156", "value": 8611, "unit": "COUNTS PER MINUTE"}, {"measurement": "BCGF activity Δ %", "setting": "Human T lymphocytes; 12.5% of supernatant", "value": "+206%"}, {"measurement": "BCGF ACTIVITY (mean)", "setting": "Human T lymphocytes; 12.5% of supernatant, T + PHA 5402", "value": 16550, "unit": "COUNTS PER MINUTE"}, {"measurement": "BCGF activity Δ %", "setting": "Human T lymphocytes; 25% of supernatant", "value": "+24%"}, {"measurement": "BCGF ACTIVITY (mean)", "setting": "Human T lymphocytes; 25% of supernatant, T + PHA 15030", "value": 18645, "unit": "COUNTS PER MINUTE"}, {"measurement": "BCGF activity Δ %", "setting": "Human T lymphocytes; 50% of supernatant", "value": "+19%"}, {"measurement": "BCGF ACTIVITY (mean)", "setting": "Human T lymphocytes; 50% of supernatant, T + PHA 17297", "value": 20508, "unit": "COUNTS PER MINUTE"}, {"measurement": "stimulation of the growth factor production", "setting": "Human T lymphocytes; IL-2 and BCGF, slightly lower than Arg-Lys-Glu, higher than Arg-Lys-Asp", "value": "marked effect of stimulation"}, {"measurement": "LD50", "setting": "[3]", "value": "> 1000", "unit": "mg/kg"}]}]}
